From US20200253860A1, “TOPICAL COMPOSITION FOR ANTIAGING BENEFITS” (Conopco, Inc., d/b/a UNILEVER, priority 2017, published 2020)

Test system: Nrf2
Experiment: Nrf2 activation in AREc32 cells (luciferase assay)
Type: cell-based
Settings: for Nrf2 activation fold increase wrt the control: note to Table 1, concentration not stated
Experimental: The AREc32 cells were obtained from CRX biosciences (Dundee, Scotland, UK). AREc32 cells were seeded into 96-well plates (flat-bottom white, opaque, sterile, with lids) at a density of 2×10^4, cells/well in 100 μL of complete media per well. Cell plates were then incubated at 37° C., 5% CO2 in a 95% humidified incubator for 24 hours before active addition. Tert butylhydroquinone (TBHQ) was used as an assay positive control. For performing the Nrf2 activity assay, the cells were lysed using Passive Lysis Buffer (PLB) (5×) procured from Promega. The PLB was diluted in a 1:5 ratio with distilled water to make 1× PLB solution. 20 μL of 1× PLB was added to each well of the 96 well plate, including 2 wells without cell (control wells). The plate was covered with aluminium foil to protect from light and incubated for 20 minutes at room temperature, on a rocker incubator. After 20 minutes, 18 μL of the cell lysate was transferred from the transparent 96 well cell culture plate to an opaque, white, flat bottom 96-well plate. The white flat bottom plates were proceeded for Luciferase assay. The Luciferase assay was performed by using Luciferase Assay System, from Promega. 80 μL of the Luciferase Reagent was added using the injector on the TECAN infinite M1000 instrument. Luminescence was measured for a period of 10 seconds using the Green 1 filter. The typical delay time of 2 seconds, and read time of 10 seconds was used. 4 readings were taken from each well within 1 min. The plate was advanced to the next well for a repeat of the inject-then-read process. The luciferase value was represented as fold change over control in Table 1.

## CCC/C=C/C=O [E-2-Hexenal]
  Nrf2 activation fold increase wrt the control: 1.1 fold

## C=CC(C)(O)CCC=C(C)C (stereo not drawn) [Linalool]
  Nrf2 activation fold increase wrt the control: barely any change

## CC(C)(C)c1cc(O)ccc1O [TBHQ, Tert butylhydroquinone]
10 μM
  Nrf2 activation Fold change wrt control: 4.5 fold
